The record followed here is PubChem BioAssay (NCI).

“And” between values parts separate entries of the source, which are not always exact repeats. Identical values can stand only once.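 Five concentrations, 48 hours, 96-well plates. GI50: concentration for 50% inhibition of growth. At the TGI there is no net growth.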

Among the test systems are EKVX NSCLC; HOP-92 NSCLC; CAKI-1 renal; SR leukemia; HL-60(TB) leukemia; OVCAR-4 ovarian; DU-145 prostate; SK-MEL-5 melanoma; SN12C renal; SK-OV-3 ovarian.
Common to all, as to experiment: inhibition of tumour cell growth, NCI panel, 48 h

As for `NC(N)=Nc1ccc(/C=C2\C=Cc3ccccc32)cc1`, the GI50 is 4.74 µM in the test with EKVX NSCLC; 1440 nM in the test with HOP-92 NSCLC; 2.49 µM in the test with CAKI-1 renal; 2.5 µM in the test with SR leukemia; 2670 nM with HL-60(TB) leukemia; 2.89 µM with OVCAR-4 ovarian. For the same compound, the GI50 with DU-145 prostate is 2360 nM; in the test on SK-MEL-5 melanoma it was 4.5 µM; in the test on SN12C renal, 2.95 µM; in the test with SK-OV-3 ovarian, 6.14 µM. In addition, the TGI worked out at 22.2 µM in the test on EKVX NSCLC; 4.6 µM in the test with HOP-92 NSCLC; 8.67 µM in the test with CAKI-1 renal; 6.85 µM with SR leukemia; 5.87 µM with HL-60(TB) leukemia; 15.1 µM with OVCAR-4 ovarian. Also, the TGI is 5.03 µM with DU-145 prostate, 17.8 µM in the test with SK-MEL-5 melanoma, 13.2 µM in the test on SN12C renal and 22.9 µM in the test with SK-OV-3 ovarian.
For `Cc1ccccc1C(C(=O)NC1CCCCC1)N(C(=O)CNc1ccc(C#N)cc1)c1cccc(F)c1` (stereo unspecified), the GI50 in the test on EKVX NSCLC is 42.5 µM; in the test on HOP-92 NSCLC, 8650 nM; in the test on CAKI-1 renal, 14.7 µM; in the test on SR leukemia it was 16.9 µM; with HL-60(TB) leukemia it was greater than 70500 nM; in the test on OVCAR-4 ovarian it was 9.34 µM. Also, the GI50 in the test with DU-145 prostate was 64400 nM; in the test on SK-MEL-5 melanoma, greater than 71.2 µM; in the test with SN12C renal it was 29.7 µM; in the test on SK-OV-3 ovarian, 12.9 µM. The TGI is greater than 100 µM in the test on EKVX NSCLC; 28.7 µM with HOP-92 NSCLC; greater than 62.6 µM with CAKI-1 renal; 92.2 µM with SR leukemia; greater than 100 µM in the test on HL-60(TB) leukemia; greater than 71.6 µM in the test with OVCAR-4 ovarian. Moreover, the TGI was greater than 100 µM with DU-145 prostate, greater than 100 µM in the test with SK-MEL-5 melanoma, greater than 100 µM in the test with SN12C renal and 52.8 µM in the test on SK-OV-3 ovarian.
`O=C1CC(CC(OCc2ccccc2)C(OCc2ccccc2)C(COCc2ccccc2)OCc2ccccc2)CC(=O)N1` (stereo unspecified): the GI50 in the test on EKVX NSCLC was > 100 µM and 12.5 µM; in the test on DU-145 prostate it was > 100000 nM and 27100 nM; in the test with SK-MEL-5 melanoma, > 100 µM and 12.6 µM; in the test with SN12C renal, > 100 µM and 18.6 µM. Besides, the TGI was greater than 100 µM in the test with EKVX NSCLC; greater than 100 µM in the test with HOP-92 NSCLC; > 100 µM and 65.4 µM in the test with SR leukemia; > 100 µM and 25.4 µM in the test on HL-60(TB) leukemia; greater than 100 µM in the test on OVCAR-4 ovarian; greater than 100 µM in the test on DU-145 prostate. Also, the TGI with SK-MEL-5 melanoma is > 100 µM and 25.6 µM; in the test on SN12C renal, > 100 µM and 54.1 µM.
With `CCOC(=O)c1cc(NS(=O)(=O)c2ccc(C)cc2)cc(C(=O)OCC)c1`, the GI50 is 31.7 µM in the test with EKVX NSCLC; 32000 nM in the test on HOP-92 NSCLC; 43.5 µM with CAKI-1 renal; 34.4 µM in the test with SR leukemia; 26500 nM in the test with HL-60(TB) leukemia; 21.2 µM with OVCAR-4 ovarian. The GI50 in the test with DU-145 prostate is 34900 nM; in the test on SK-MEL-5 melanoma, 31 µM; with SN12C renal, 78.1 µM; in the test on SK-OV-3 ovarian, 70.7 µM. Besides, the TGI was greater than 100 µM in the test on EKVX NSCLC; greater than 100 µM with HOP-92 NSCLC; greater than 100 µM in the test on CAKI-1 renal; greater than 100 µM with SR leukemia; greater than 100 µM in the test on HL-60(TB) leukemia; 85.5 µM with OVCAR-4 ovarian. For the same compound, the TGI in the test with DU-145 prostate, in the test on SK-MEL-5 melanoma, in the test with SN12C renal and in the test with SK-OV-3 ovarian was greater than 100 µM throughout.
For `COC(=O)[C@@H](C)C[C@H](Cc1ccccc1)NC(=O)c1csc([C@@H](C[C@H](C(C)C)N(C)C(=O)[C@@H](NC(=O)[C@H]2CCCN2C)C2CC2)OC(C)=O)n1`, the GI50 with EKVX NSCLC is 0.00833 µM; with HOP-92 NSCLC it was 0.286 nM; with HL-60(TB) leukemia it was 0.219 nM and < 2.5 nM; in the test with DU-145 prostate, 0.446 nM and 2.5 nM; in the test on SK-MEL-5 melanoma, 0.000329 µM and < 0.0025 µM; in the test with SN12C renal, 0.000981 µM and 0.0025 µM. Moreover, in the test on SK-OV-3 ovarian, the GI50 was 0.0083 µM and 0.0025 µM. Further, the TGI in the test with SR leukemia is greater than 25 µM; with HL-60(TB) leukemia, 0.000738 µM and < 0.0025 µM; in the test on OVCAR-4 ovarian, greater than 25 µM; with DU-145 prostate, greater than 25 µM; with SN12C renal it was greater than 25 µM; in the test on SK-OV-3 ovarian it was greater than 25 µM.
For `COc1cc2nc3cc([N+](=O)[O-])ccc3c(NCCNCC(C)O)c2cc1OC` (stereo unspecified), the GI50 is 1.62 µM in the test with EKVX NSCLC; 367 nM with HOP-92 NSCLC; 2.5 µM with CAKI-1 renal; 0.286 µM in the test with SR leukemia; 2520 nM in the test on HL-60(TB) leukemia; 0.886 µM with OVCAR-4 ovarian. The GI50 with DU-145 prostate is 445 nM; with SK-OV-3 ovarian it was 1.98 µM. Besides, the TGI was 5.34 µM in the test on EKVX NSCLC; 2.31 µM in the test on HOP-92 NSCLC; 10.9 µM in the test with CAKI-1 renal; 2.16 µM in the test on SR leukemia; 6.66 µM in the test with HL-60(TB) leukemia; 2.92 µM with OVCAR-4 ovarian. Further, the TGI amounted to 2.2 µM in the test on DU-145 prostate and 5.35 µM with SK-OV-3 ovarian.
